Assays:
[1] = system: C6, GL261, T98G mHsp70-positive tumor cells; assay: Confocal microscopy of peptide binding and internalization; type: cell-based; settings: for internalization/accumulation in tumor cells by confocal microscopy: 75 μg/mL, co-incubation 15, 30 and 60 minutes
Experimental: The binding of the TKD-sCy5, RAS70-sCy5, and NGL-RGD-sCy5 peptides to tumor cells was visualized using the Olympus FV3000 confocal system (Olympus, Japan). The C6, GL261, T98G, ANI, IBD, TMS cells (0.1×10^6 mL^-1 cells) were placed on Nunc™ Lab-Tek™ Chamber Slide System (Thermo Fisher Scientific, USA) and kept overnight. For primary GBM cells the chambers were pre-coated with Matrigel (0.2 mg/mL, Corning, New York, USA) to increase adhesion properties. The cells were incubated with peptides at a concentration of 75 μg/mL for 15, 30, and 60 minutes on ice in the dark. After the incubation cells were washed with PBS, fixed in a 10% formalin solution (Sigma-Aldrich, Burlington, USA), and mounted using a mounting medium containing DAPI (Ibidi, Graefelfing, Germany). Unstained cells were used as controls.
To study the mechanisms of peptide internalization, cells were incubated with peptides for 30 minutes in 37°C in a 5% CO2, washed with PBS, fixed in a 10% formalin solution (Sigma-Aldrich, USA), permeabilized with 0,1% Triton-X100 solution (Servicebio, Wuhan, China), blocked with 5% bovine serum albumin solution and incubated overnight with Alexa Fluor® 488 Anti-Rab5 antibody [EPR21801] (#ab270094, abcam, USA), and with Alexa Fluor® 488 Anti-LAMP1 antibody [EPR24395-31] (#281758, abcam, USA). After 24 hours cells were washed with 0,1% Tween-20 solution (Sigma-Aldrich, Burlington, USA) and mounted using a mounting medium containing DAPI (Ibidi, Graefelfing, Germany). To study the co-localization of the peptide with endolysosomal markers the raw confocal images (n = 10 for each group) were obtained in a 3-channel, 1024 × 1024 pixel format. Colocalization coefficient (τ-Kendall rank correlation value) was computed with the Coloc2 plugin and ImageJ 1.54g ([32]).
The next step was co-incubation of the target peptide RAS70 labeled with fluorescent dye Cy5 with tumor cells for 15, 30 and 60 minutes, followed by confocal microscopy analysis. […] To exclude processes of active internalization of the peptide, co-incubation of the cells on ice at +4°C was performed. […] Next, we evaluated the targeting properties of RAS70 on primary glioblastoma cells (ANI, IBD, TMS) obtained from neuro-oncological patients ([3]) that were additionally characterized for mHsp70, SOX2, NESTIN, GFAP, β3-Tubulin, Ki-67, and CD133 ( Figures 3A–I ).

[2] = system: U251 cells (lower chamber; HUVEC and astrocytes barrier)
Experimental: (§1) Then, a peptide labeled with a fluorescent label was introduced into the upper chamber and co-incubation was carried out for 12, 24 and 36 hours. At the end of the incubation, the tumor cells were washed with cold phosphate-buffered saline (PBS) and fixed with a 4% solution of paraformaldehyde in PBS. Nuclei were stained with 4’,6-diamidino-2-phenylindole (DAPI). Fluorescent images were obtained using a Leica TCS SP8 confocal microscope (Leica, Germany). To avoid possible cross-interference of different fluorochromes, images for DAPI and FITC were obtained using a sequential sample scanning method. Fluorescently labeled cells were counted in the lower chamber. To estimate the mHsp70-mediated uptake of chaperone-targeted peptides tumor cells prior to incubation were pre-treated with anti-Hsp70 monoclonal antibodies SPA-810 (1:250, Stressgen) and SPA-815 (1:250 Stressgen). To exclude integrin (αvβ3, αvβ5)-mediated penetration of RAS70 tumor cells prior to incubation with peptides were pre-treated with anti- αvβ3 (1:200 clone LM609, ZMS1030, Sigma-Aldrich, USA), -αvβ5 (1:200 clone P1F6, MAB1961Z, Sigma-Aldrich, USA) monoclonal antibodies.
(§2) Then, a peptide labeled with a fluorescent dye (FITC) was introduced into the upper chamber and co-incubation was carried out for 12, 24 and 36 hours. At the end of the incubation, the tumor cells were washed with cold phosphate-buffered saline (PBS) and fixed with a 4% solution of paraformaldehyde in PBS. Nuclei were stained with 4’,6-diamidino-2-phenylindole (DAPI).
(§3) Data from 3 independent experiments are presented as M ± SE. […] Data from 3 independent experiments are presented as M ± SE. ** p < 0.01 for testing mean expression levels.

[3] = system: primary GBM IBD cells; assay: Cell motility analysis; type: cell-based, human; settings: 56 h recording
Experimental: The cell speed of the primary GBM culture was determined using Image ExFluorer, an automatic cell imaging device (LCI, Korea). The cells were seeded into 24-well plates, and the cell nuclei were labelled with the fluorescent dye Hoechst 33342. The plates were then placed in an integrated incubator with temperature control (37°C) and 5% CO2. The fluorescence was stimulated at 405 nm using a long-focus semi-apochromatic 20× lens with a numerical aperture of 0.45. The primary IBD cell line was divided into 4 wells, each with five visual fields: two untreated wells on distinct matrices (Collagen I and Fibrinogene) and two wells containing RAS70 peptide on matrices.
FOVs were captured every 15 minutes over 56 hours, resulting in images with a resolution of 2.560 × 2.160 pixels (0.33 μm/px). Real-time focus correction was used. The captured frames were analyzed using the NIS-Elements software with a module for automatic segmentation, quantification, and tracking of individual cells. Cell nuclei (with a diameter of more than 2.5 μm) were recognized in images, and the X-Y coordinates of the nuclei were recorded. Cell movement tracks were built according to the coordinates of the nuclei, and the motility metrics (average speed, maximal speed, and track straightness) were calculated.
Additionally, we evaluated the effect of RAS70 peptide on cell motility of primary glioblastoma culture. In order to investigate the possible influence of the RAS70 peptide on the invasive capacity of tumor cells, we conducted an experiment in which we recorded cell motility on two different substrates (Collagen I, Fibrinogen) for 56 h.

[4] = system: C6 cells (lower chamber; HUVEC and astrocytes barrier); assay: Transwell BBB model, peptide passage and accumulation in tumor cells; settings: transwell BBB model: HUVEC (5×10^5) and astrocytes (5×10^5) in upper chamber, C6 (1×10^4) in lower chamber; FITC-labeled peptide; 36 hours; confocal microscopy count; M ± SE, 3 independent experiments
Experimental: as §1, §2, §3

Structure (SMILES): CC(C)C[C@H](NC(=O)[C@H](CC(C)C)NC(=O)[C@H](CC(N)=O)NC(=O)[C@H](CC(N)=O)NC(=O)[C@H](CC(=O)O)NC(=O)[C@H](CCCCN)NC(=O)[C@@H](N)[C@@H](C)O)C(=O)NCC(=O)N[C@@H](CCCNC(=N)N)C(=O)N[C@@H](Cc1ccccc1)C(=O)N[C@@H](CCC(=O)O)C(=O)N[C@@H](CC(C)C)C(=O)N[C@@H](CO)C(=O)NCC(=O)NCCC(=O)N[C@@H](CCCNC(=N)N)C(=O)NCC(=O)N[C@@H](CC(=O)O)C(=O)O [RAS70]
- co-localization with early endosome (Rab5) and lysosome (LAMP-1) markers ([1]; 30 minutes at 37°C, confocal microscopy): only partially penetrated the cell via the endolysosomal pathway
- internalization/accumulation in tumor cells by confocal microscopy ([1]; Cy5-labeled peptide): higher accumulation of the peptide was detected as compared to TKD or control
- subcellular localization ([1]; Cy5-labeled peptide, confocal microscopy): predominantly localized in the cytoplasm of cells without penetrating into the nuclei
- penetration into cells on ice ([1]; co-incubation on ice at +4°C to exclude active internalization, data not shown): significant decrease in the penetration
- fluorescently labeled tumor cells in the lower chamber [2]: 603 ± 87 cells
- effect on average cell speed ([3]; IBD cells on Collagen I): no effect on the average cell speed
- effect on maximum cell speed ([3]; IBD cells on Collagen I): slightly diminished maximum cell speed
- effect on track straightness ([3]; IBD cells on Collagen I): increased the straightness of the trajectories
- effect on motility metrics (average speed, max speed, track straightness) ([3]; IBD cells on fibrinogen): did not affect any of the measured motility metrics

Structure (SMILES): CC(C)C[C@H](NC(=O)[C@H](CC(C)C)NC(=O)[C@H](CC(N)=O)NC(=O)[C@H](CC(N)=O)NC(=O)[C@H](CC(=O)O)NC(=O)[C@H](CCCCN)NC(=O)[C@@H](N)[C@@H](C)O)C(=O)NCC(=O)N[C@@H](CCCNC(=N)N)C(=O)N[C@@H](Cc1ccccc1)C(=O)N[C@@H](CCC(=O)O)C(=O)N[C@@H](CC(C)C)C(=O)N[C@@H](CO)C(=O)NCC(=O)O [TKD]
- internalization/accumulation in tumor cells by confocal microscopy ([1]; Cy5-labeled peptide): internalization of the TKD peptide by tumor cells was noted, reaching maximum absorption of the peptide after 60 minutes
- fluorescently labeled tumor cells in the lower chamber [4]: 301 ± 35 cells

Reference: article PMC11973282, “RAS70 peptide targets multiforme glioblastoma by binding to the plasma membrane heat shock protein HSP70” (Frontiers in Oncology, 2025)
